According to patent publication US7998972B2, “1H-imidazo[4,5-c]quinoline derivatives in the treatment of protein kinase dependent diseases” (Novartis AG, priority 2002, dated 2011):

Assays:
Kdr = target: T1, Kdr (Homo sapiens, UniProt P35968); assay: Inhibition of KDR protein tyrosine kinase in vitro; format: biochemical; settings: GST-fused KDR kinase domain, polyGluTyr(4:1), 8 μM ATP; read-out: IC50 range class, inhibition of Kdr in vitro
T1 construct: The kinase domain of KDR is expressed as GST-fusion protein using the baculovirus system; made in house
T1 sequence (P35968 834-1162 limits assumed): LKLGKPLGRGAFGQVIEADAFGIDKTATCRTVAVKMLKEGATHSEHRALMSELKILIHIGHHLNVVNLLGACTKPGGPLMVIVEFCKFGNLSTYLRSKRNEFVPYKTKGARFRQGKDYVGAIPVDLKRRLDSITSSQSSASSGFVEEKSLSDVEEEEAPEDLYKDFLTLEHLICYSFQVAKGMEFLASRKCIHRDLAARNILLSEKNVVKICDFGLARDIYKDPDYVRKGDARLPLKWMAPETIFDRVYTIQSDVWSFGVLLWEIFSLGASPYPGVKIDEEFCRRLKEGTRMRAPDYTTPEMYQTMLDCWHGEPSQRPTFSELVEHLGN
Protocol: Inhibition of the enzyme activity of KDR protein tyrosine kinase can be determined as follows: The kinase domain of KDR is expressed as GST-fusion protein using the baculovirus system. The in vitro kinase assay is performed in 96-well plates using the recombinant GST-fused kinase domains expressed in baculovirus and purified over glutathione-Sepharose. ^33P-ATP (Amersham) is used as the phosphate donor, and the polyGluTyr(4:1) peptide (Sigma) is used as acceptor. The buffer is composed as follows: 29 mM Tris-HCl, pH 7.5; 10 mM MgCl2, 1 μM MnCl2, 8 μM ATP, 0.2 μCi ^33P-ATP, 8 μg/ml polyGluTyr. The reaction os carried out in a volume of 30 μl for 10 min at room temperature in the presence of either 1% DMSO or the test compound of formula I at the required concentration in 1% DMSO […]. The reaction is stopped by the addition of ethylenediaminetetraacetic acid to a final concentration of 60 mM. The assay mixture is then transferred onto a Immobilon-PVF membrane (Millipore), which is subsequently washed four times with 0.05% H3PO4 and once with ethanol. After drying, […] of Microscint Cocktail (Packard) is added and scintillation counting is performed (Hewlett-Packard Top Count). IC50 values are calculated by linear regression analysis of the percentage inhibition of each test compound in duplicate, at three concentrations (usually 0.01, 0.1 and 1 μM or 0.1, 1 and 10 μM).

CDK1 = assay: Inhibition of CDK1 (p34cdc2/cyclin Bcdc13 kinase, histone H1 substrate); format: biochemical, starfish; settings: read-out: IC50 range class, inhibition of CDK1 in vitro
Protocol: Starfish oocytes are induced into the M phase with 10 μM 1-methyl-adenine, frozen in liquid nitrogen and stored at −80° C. The ooctyes are homogenized and centrifuged, as described in D. Arlon et al., Cell 55, 371-378 (1988) and V. Rialet und L. Meijer, Anticancer Res. 11, 1581-1590 (1991), as required. For purification of the p34^cdc2/cyclin B^cdc13 kinase, the supernatant of the oocytes is introduced onto p9^CKShs Sepharose grains produced from recombinant human protein p9^CKShs, as described in L. Azzi et al., Eur. J. Biochem. 203, 353-360 (1992). After 30 minutes at 4° C. under constant rotation, the grains are washed thoroughly and the active p34^cdc2/cyclin B^cdc13 kinase is eluted with free protein p9^CKShs (3 mg/ml). The kinase eluted is tested as described in L. Meijer et al., EMBO J. 8, 2275-2282 (1989) and EMBO J. 10, 1545-1554 (1991), using histone H1 as the substrate. In this test, the compounds of the formula I and their pharmaceutically acceptable salts have an inhibiting concentration IC50 [μmol/l] of 0.01 to 10, usually of 0.05 to 1.

c-Met = target: T2, c-Met (Homo sapiens, UniProt P08581); assay: Inhibition of c-Met kinase (33P-ATP filter assay); format: biochemical; settings: GST-c-Met cytoplasmic domain, poly(EY) substrate; read-out: IC50 range class, inhibition of c-Met
T2 construct: c-Met cytoplasmic domain (amino acids 969 to C-terminus); made in house; host or cells: baculovirus / Sf9 cells
T2 sequence (P08581 969-1390 limits assumed): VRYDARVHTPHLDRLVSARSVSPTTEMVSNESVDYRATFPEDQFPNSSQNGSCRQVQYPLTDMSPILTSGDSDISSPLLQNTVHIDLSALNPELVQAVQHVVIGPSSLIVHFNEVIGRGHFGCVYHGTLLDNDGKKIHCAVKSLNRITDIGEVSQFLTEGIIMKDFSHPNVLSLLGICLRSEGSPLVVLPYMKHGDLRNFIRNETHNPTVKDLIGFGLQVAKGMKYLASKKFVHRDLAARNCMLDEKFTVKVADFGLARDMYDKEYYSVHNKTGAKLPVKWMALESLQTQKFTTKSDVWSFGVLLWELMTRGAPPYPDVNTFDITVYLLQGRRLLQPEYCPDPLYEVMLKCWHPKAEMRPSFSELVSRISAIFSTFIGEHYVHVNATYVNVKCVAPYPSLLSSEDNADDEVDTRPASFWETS
Description: Compounds of the formula I, for example, are able to inhibit c-Met kinase as mentioned already in the introduction. Using the sequence disclosed by Chan et al. (see Chan, A M-L, King H W S, Tempest P R, Deakin E A, Cooper C S, Brookes P. Primary structure of the met protein tyrosine kinase domain. Oncogene 1987; 12:229-233), a construct with this sequence, after hooking to a GST tag, was cloned into baculovirus and expressed in Sf9 cells. After partial purification by affinity chromatography on GST agarose resulting in a >90% pure preparation (SDS-PAGE), the kinase activity of this construct is used for inhibition assays using the compounds of formula I. The quality of the purified kinase preparations is highly reproducible: 9 batches of c-Met gives an average specific activity of 32.3±5.7 nmol/mg·min.
For inhibition studies, the following experimental protocol is used:
In vitro protein kinase assays are performed in 96-well plates. The amount of enzyme used in kinase assays and the incubation time for the kinase reaction are adjusted so that maximally 25% (in routine experiments <10%) of the substrate ATP are consumed.
Test compounds of the formula I are first dissolved in DMSO at a concentration of 1-10 mM (stock solution) and then further diluted with water/3% DMSO as required so that the final DMSO concentration in the assay is 1%.
The assay components are mixed in the following order: • 10 μl 3×compound (in 3% DMSO) • 10 μl 3×assay mix (MgCl2/MnCl2/ATP/^33P-ATP/poly(EY)) • 10 μl 3×enzyme dilution
Assays are incubated for 15 min (in special cases up to 60 min) at ambient temperature, reactions terminated by addition of 10 μl 0.25 M EDTA pH 7, then 20 μl transferred to a Millipore Immobilon^P membrane (previously soaked for 5 min with methanol, rinsed with water, then soaked for 5 min with 0.5% H3PO4 and mounted on vacuum manifold) with disconnected vacuum source. After spotting all samples, vacuum is connected and each well rinsed with 200 μl 0.5% H3PO4. Membranes are removed and washed 4× on shaker with 0.5% H3PO4, once with methanol. Membranes are counted after drying at ambient temperature, mounting in Packard TopCount 96-well frame, and addition of 10 μl/well of the scintillator Microscint™ (Packard).
IC50 values are calculated by logarithmic regression analysis of the percentage inhibition of each compound at 4 concentrations (usually 3- or 10-fold dilution series starting at 10 μM). In each experiment, the actual inhibition by reference compound is used for normalization of IC50 values to the basis of an average value of the reference inhibitor: Normalized IC50=measured IC50·average ref. IC50/measured ref. IC50 Example: • Reference inhibitor in experiment 0.4 μM, average 0.3 μM • Test compound in experiment 1.0 μM, normalization: 1.0·0.3/0.4=0.75 μM
For example, staurosporine or a synthetic staurosporine derivative are used as reference compounds.

Abl = target: T3, Abl (Homo sapiens, UniProt P00519); assay: Inhibition of c-Abl protein-tyrosine kinase (filter binding assay); format: biochemical; settings: His-tagged c-Abl kinase domain, Poly-AEKY, 5 μM ATP; read-out: IC50 range class, inhibition of Abl in vitro
T3 construct: The His-tagged kinase domain of c-Abl is cloned and expressed in the baculovirus/Sf9 system; His; made in house; host or cells: baculovirus / Sf9 cells
T3 sequence (P00519 242-493 limits assumed): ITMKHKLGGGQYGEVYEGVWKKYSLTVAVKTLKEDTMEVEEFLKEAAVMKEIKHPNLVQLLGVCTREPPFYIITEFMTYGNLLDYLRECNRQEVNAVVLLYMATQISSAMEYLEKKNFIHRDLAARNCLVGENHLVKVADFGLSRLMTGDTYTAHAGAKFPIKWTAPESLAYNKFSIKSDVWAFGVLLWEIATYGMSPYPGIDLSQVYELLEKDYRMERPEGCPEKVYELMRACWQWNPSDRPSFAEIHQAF
Protocol: An in vitro enzyme assay is performed in 96-well plates as a filter binding assay as described by Geissler et al. in Cancer Res. 1992; 52:4492-4498, with the following modifications. The His-tagged kinase domain of c-Abl is cloned and expressed in the baculovirus/Sf9 system as described by Bhat et al. in J. Biol. Chem. 1997; 272:16170-16175. A protein of 37 kD (c-Abl kinase) is purified by a two-step procedure over a Cobalt metal chelate column followed by an anion exchange column with a yield of 1-2 mg/L of Sf9 cells (Bhat et al., reference cited). The purity of the c-Abl kinase is >90% as judged by SDS-PAGE after Coomassie blue staining. The assay contains (total volume of 30 μL): c-Abl kinase (50 ng), 20 mM Tris.HCl, pH 7.5, 10 mM MgCl2, 10 μM Na3VO4, 1 mM DTT and 0.06 μCi/assay [γ^33 P]-ATP (5 μM ATP) using 30 μg/mL poly-Ala,Glu,Lys,Tyr-6:2:5:1 (Poly-AEKY, Sigma P1152) in the presence of 1% DMSO. Reactions are terminated by adding 10 μL of 250 mM EDTA and 30 μL of the reaction mixture is transferred on to Immobilon-PVDF membrane (Millipore, Bedford, Mass., USA) previously soaked for 5 min with methanol, rinsed with water, then soaked for 5 min with 0.5% H3PO4 and mounted on vacuum manifold with disconnected vacuum source. After spotting all samples, vacuum is connected and each well rinsed with 200 μL 0.5% H3PO4. Membranes are removed and washed on a shaker with 0.5% H3PO4 (4 times) and once with ethanol. Membranes are counted after drying at ambient temperature, mounting in Packard TopCount 96-well frame, and addition of 10 μL/well of Microscint™ (Packard).

IC50 (Kdr) [µM]	IC50 (CDK1) [µM]	IC50 (c-Met) [µM]	IC50 (Abl) [µM]	Compound
1 to 2				COc1ccc2ncc3ncn(-c4ccccc4)c3c2c1 [Example 48, 8-Methoxy-1-phenyl-1H-imidazo[4,5-]quinoline]
	0.5 to 1			O=c1n(CC2CC2)c2cnc3ccc(Cl)cc3c2n1-c1ccccc1Cl [Example 128, 8-Chloro-1-(2-chloro-phenyl)-3-(cyclopropyl-methyl)-1,3-dihydro-imidazo[4,5-c]quinolin-2-one]
1 to 2	1 to 2	≤ 0.5		CCn1c(=O)n(-c2ccccc2Cl)c2c3cc(Br)ccc3ncc21 [Example 113, 8-Bromo-1-(2-chloro-phenyl)-3-ethyl-1,3-dihydro-imidazo[4,5-c]quinolin-2-one]
	1 to 2	≤ 0.5		Cn1c(=O)n(-c2ccccc2Cl)c2c3cc(Br)ccc3ncc21 [Example 104, 8-Bromo-1-(2-chloro-phenyl)-3-methyl-1,3-dihydro-imidazo[4,5-c]quinolin-2-one]
≤ 0.5	≤ 0.5	0.5 to 1		CC(C)n1c(=O)n(-c2ccccc2Cl)c2c3cc(Br)ccc3ncc21 [Example 114, 8-Bromo-1-(2-chloro-phenyl)-3-isopropyl-1,3-dihydro-imidazo[4,5-c]quinolin-2-one]
	≤ 0.5	≤ 0.5		CCc1ccc2ncc3ncn(-c4ccccc4F)c3c2c1 [Example 50, 8-Ethyl-1-(2-fluoro-phenyl)-1H-imidazo[4,5-c]quinoline]
≤ 0.5	≤ 0.5	0.5 to 1		CCn1c(=O)n(-c2ccccc2Cl)c2c3cc(Cl)ccc3ncc21 [Example 108, 8-Chloro-1-(2-chloro-phenyl)-3-ethyl-1,3-dihydro-imidazo[4,5-c]quinolin-2-one]
			≤ 0.5	COc1ccccc1-c1ccc2ncc3ncn(-c4ccccc4Cl)c3c2c1 [Example 142, 1-(2-Chloro-phenyl)-8-(2-methoxy-phenyl)-1H-imidazo[4,5-c]quinoline]
≤ 0.5			≤ 0.5	Nc1cccc(-n2cnc3cnc4ccc(-c5ccccc5)cc4c32)c1 [Example 58, 3-(8-Phenyl-imidazo[4,5-c]quinolin-1-yl)-phenylamine]
≤ 0.5			≤ 0.5	COc1cccc(-c2ccc3ncc4ncn(-c5ccccc5Cl)c4c3c2)c1 [Example 140, 1-(2-Chloro-phenyl)-8-(3-methoxy-phenyl)-1H-imidazo[4,5-c]quinoline]
0.5 to 1		≤ 0.5		O=c1[nH]c2cnc3ccc(Br)cc3c2n1-c1ccccc1Cl [Example 93, 8-Bromo-1-(2-chloro-phenyl)-1,3-dihydro-imidazo[4,5-c]quinolin-2-one]
≤ 0.5			≤ 0.5	OCc1cccc(-n2cnc3cnc4ccc(-c5ccccc5)cc4c32)c1 [Example 62, [3-(8-Phenyl-imidazo[4,5-c]quinolin-1-yl)-phenyl]-methanol]
